Experimental data: PubChem BioAssay (NCI)
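Here, GI50 denotes the concentration required for 50% inhibition of growth. TGI is the concentration that stops growth completely.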

Experiments:
Assay in all cases: NCI-60 cell line screen, 384-well format
786-0 renal = tested on: 786-0 renal
A498 renal = tested on: A498 renal
A549 NSCLC = tested on: A549 NSCLC
ACHN renal = tested on: ACHN renal
BT-549 breast = tested on: BT-549 breast
CAKI-1 renal = tested on: CAKI-1 renal
CCRF-CEM leukemia = tested on: CCRF-CEM leukemia
COLO 205 colon = tested on: COLO 205 colon
DU-145 prostate = tested on: DU-145 prostate
EKVX NSCLC = tested on: EKVX NSCLC
HCC-2998 colon = tested on: HCC-2998 colon
HCT-116 colon = tested on: HCT-116 colon
HCT-15 colon = tested on: HCT-15 colon
HL-60(TB) leukemia = tested on: HL-60(TB) leukemia
HOP-62 NSCLC = tested on: HOP-62 NSCLC
HOP-92 NSCLC = tested on: HOP-92 NSCLC
HS 578T breast = tested on: HS 578T breast
HT29 colon = tested on: HT29 colon
K-562 leukemia = tested on: K-562 leukemia
KM12 colon = tested on: KM12 colon
LOX IMVI melanoma = tested on: LOX IMVI melanoma
M14 melanoma = tested on: M14 melanoma
MALME-3M melanoma = tested on: MALME-3M melanoma
MCF7 breast = tested on: MCF7 breast
MDA-MB-231 breast = tested on: MDA-MB-231 breast
MDA-MB-435 melanoma = tested on: MDA-MB-435 melanoma
MDA-MB-468 breast = tested on: MDA-MB-468 breast
MOLT-4 leukemia = tested on: MOLT-4 leukemia

CCc1cc(C(N)=O)ccc1-n1nc(C(C)C)c2c(-n3cnc(-c4cnn(C)c4)c3)ccnc21
GI50 ([…]-0 renal): 825 nM | TGI (786-0 renal): > 100000 nM | GI50 (A498 renal): 1110 nM | TGI (A498 renal): > 100000 nM | GI50 (A549 NSCLC): 411 nM | TGI (A549 NSCLC): > 100000 nM | GI50 (ACHN renal): 902 nM | TGI (ACHN renal): > 100000 nM | GI50 (BT-549 breast): 651 nM | TGI (BT-549 breast): 9960 nM | GI50 (CAKI-1 renal): 767 nM | TGI (CAKI-1 renal): > 100000 nM | GI50 (CCRF-CEM leukemia): 289 nM | TGI (CCRF-CEM leukemia): 1250 nM | GI50 (COLO 205 colon): 392 nM | TGI (COLO 205 colon): > 100000 nM | GI50 (DU-145 prostate): 369 nM | TGI (DU-145 prostate): 5800 nM | GI50 (EKVX NSCLC): 712 nM | TGI (EKVX NSCLC): > 100000 nM | GI50 (HCC-2998 colon): 406 nM | TGI (HCC-2998 colon): 1870 nM | GI50 (HCT-116 colon): 561 nM | TGI (HCT-116 colon): 82900 nM | GI50 (HCT-15 colon): 534 nM | TGI (HCT-15 colon): > 100000 nM | GI50 (HL-60(TB) leukemia): 189 nM | TGI (HL-60(TB) leukemia): 405 nM | GI50 (HOP-62 NSCLC): 584 nM | TGI (HOP-62 NSCLC): > 100000 nM | GI50 (HOP-92 NSCLC): 675 nM | TGI (HOP-92 NSCLC): 3060 nM | GI50 (HS 578T breast): 418 nM | TGI (HS 578T breast): 2230 nM | GI50 (HT29 colon): 398 nM | TGI (HT29 colon): > 100000 nM | GI50 (K-562 leukemia): 326 nM | TGI (K-562 leukemia): 3660 nM | GI50 (KM12 colon): 374 nM | TGI (KM12 colon): > 100000 nM | GI50 (LOX IMVI melanoma): 382 nM | TGI (LOX IMVI melanoma): 1260 nM | GI50 (M14 melanoma): 488 nM | TGI (M14 melanoma): 23000 nM | GI50 (MALME-3M melanoma): 240 nM | TGI (MALME-3M melanoma): 502 nM | GI50 (MCF7 breast): 305 nM | TGI (MCF7 breast): > 100000 nM | GI50 (MDA-MB-231 breast): 643 nM | TGI (MDA-MB-231 breast): 6070 nM | GI50 (MDA-MB-435 melanoma): 653 nM | TGI (MDA-MB-435 melanoma): > 100000 nM | GI50 (MDA-MB-468 breast): 276 nM | TGI (MDA-MB-468 breast): 595 nM | GI50 (MOLT-4 leukemia): 182 nM | TGI (MOLT-4 leukemia): 349 nM
